# Measurements reported in US9790230B2 (Hoffmann-La Roche Inc., priority 2015, dated 2017).
# Like-named read-outs stand apart in the source and are kept apart here.
# Key:
# [1] = target: rat TAAR1 (Rattus norvegicus (Rat), UniProt Q923Y9); assay: Radioligand binding assay on rat TAAR1;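 also: membranes from HEK293 cells stably transfected with rat TAAR1, tritiated TAAR1 radioligand, 1 h incubation at 4 °C, nonspecific binding determined with excess unlabeled ligand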
# Description: (§1) Membrane Preparation and Radioligand Binding.
# HEK-293 cells stably expressing rat TAAR1 were maintained at 37° C. and 5% CO2 in DMEM high glucose medium, containing fetal calf serum (10%, heat inactivated for 30 min at 56° C.), penicillin/streptomycin (1%), and 375 μg/ml geneticin (Gibco). Cells were released from culture flasks using trypsin/EDTA, harvested, washed twice with ice-cold PBS (without Ca^2+ and Mg^2+), pelleted at 1'000 rpm for 5 min at 4° C., frozen and stored at −80° C. Frozen pellets were suspended in 20 ml HEPES-NaOH (20 mM, pH 7.4) containing 10 mM EDTA and homogenized with a Polytron (PT 6000, Kinematica) at 14′000 rpm for 20 s. The homogenate was centrifuged at 48'000×g for 30 min at 4° C. Subsequently, the supernatant was removed and discarded, and the pellet resuspended in 20 ml HEPES-NaOH (20 mM, pH 7.4) containing 0.1 mM EDTA using the Polytron (20 s at 14'000 rpm). This procedure was repeated and the final pellet resuspended in HEPES-NaOH containing 0.1 mM EDTA and homogenized using the Polytron. Typically, aliquots of 2 ml membrane portions were stored at −80° C. With each new membrane batch the dissociation constant (Kd) was determined via a saturation curve. […] Nonspecific binding was defined as the amount of 3 [H]—(S)-4-[(ethyl-phenyl-amino)-methyl]-4,5-dihydro-oxazol-2-ylamine bound in the presence of 10 M unlabeled ligand. All compounds were tested at a broad range of concentrations (10 pM to 10 μM) in duplicates. […] The 96 deep well plates were incubated for 1 hr at 4° C. Incubations were terminated by rapid filtration through Unifilter-96 plates (Packard Instrument Company) and glass filters GF/C (Perkin Elmer) presoaked for 1 hr in polyethylenimine (0.3%) and washed 3 times with 1 ml of cold binding buffer. After addition of 45 μl of Microscint 40 (PerkinElmer) the Unifilter-96 plate was sealed and after 1 hr the radioactivity counted using a TopCount Microplate Scintillation Counter (Packard Instrument Company).
# [2] = target: mouse TAAR1 (Mus musculus (Mouse), UniProt Q923Y8); assay: Radioligand binding assay on mouse TAAR1
# Description: Radioligand Binding Assay on Mouse TAAR1
# as §1
# HEK-293 cells stably expressing mouse TAAR1 were maintained at 37° C. and 5% CO2 in DMEM high glucose medium, containing fetal calf serum (10%, heat inactivated for 30 min at 56° C.), penicillin/streptomycin (1%), and 375 μg/ml geneticin (Gibco). Cells were released from culture flasks using trypsin/EDTA, harvested, washed twice with ice-cold PBS (without Ca^2+ and Mg^2+), pelleted at 1'000 rpm for 5 min at 4° C., frozen and stored at −80° C. Frozen pellets were suspended in 20 ml HEPES-NaOH (20 mM, pH 7.4) containing 10 mM EDTA and homogenized with a Polytron (PT 6000, Kinematica) at 14'000 rpm for 20 s. The homogenate was centrifuged at 48'000×g for 30 min at 4° C. Subsequently, the supernatant was removed and discarded, and the pellet resuspended in 20 ml HEPES-NaOH (20 mM, pH 7.4) containing 0.1 mM EDTA using the Polytron (20 s at 14'000 rpm). This procedure was repeated and the final pellet resuspended in HEPES-NaOH containing 0.1 mM EDTA and homogenized using the Polytron. Typically, aliquots of 2 ml membrane portions were stored at −80° C. With each new membrane batch the dissociation constant (Kd) was determined via a saturation curve. The TAAR1 radioligand ^3[H]—(S)-4-[(ethyl-phenyl-amino)-methyl]-4,5-dihydro-oxazol-2-ylamine (described in WO 2008/098857) was used at a concentration equal to the calculated Kd value, that was usually around 0.7 nM, resulting in the binding of approximately 0.5% of the radioligand and a specific binding representing approximately 70% of the total binding. Nonspecific binding was defined as the amount of ^3[H]—(S)-4-[(ethyl-phenyl-amino)-methyl]-4,5-dihydro-oxazol-2-ylamine bound in the presence of 10 M unlabeled ligand. All compounds were tested at a broad range of concentrations (10 pM to 10 μM) in duplicates. […] The 96 deep well plates were incubated for 1 hr at 4° C. Incubations were terminated by rapid filtration through Unifilter-96 plates (Packard Instrument Company) and glass filters GF/C (Perkin Elmer) presoaked for 1 hr in polyethylenimine (0.3%) and washed 3 times with 1 ml of cold binding buffer. After addition of 45 μl of Microscint 40 (PerkinElmer) the Unifilter-96 plate was sealed and after 1 hr the radioactivity counted using a TopCount Microplate Scintillation Counter (Packard Instrument Company).
# [3] = read-out: Ki (μM) rat, rat TAAR1, HEK-293 membranes, second value of cell mouse/rat
# rat TAAR1, sequence (Q923Y9 whole entry): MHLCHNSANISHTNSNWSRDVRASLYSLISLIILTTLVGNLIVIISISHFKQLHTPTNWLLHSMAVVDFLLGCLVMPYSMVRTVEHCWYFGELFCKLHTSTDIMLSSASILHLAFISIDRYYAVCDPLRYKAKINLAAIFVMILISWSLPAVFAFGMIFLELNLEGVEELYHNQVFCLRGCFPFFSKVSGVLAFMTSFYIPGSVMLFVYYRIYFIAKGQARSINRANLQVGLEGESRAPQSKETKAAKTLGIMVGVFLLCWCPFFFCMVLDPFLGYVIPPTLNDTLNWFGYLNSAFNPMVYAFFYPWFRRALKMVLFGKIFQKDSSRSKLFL
# mouse TAAR1, sequence (Q923Y8 whole entry): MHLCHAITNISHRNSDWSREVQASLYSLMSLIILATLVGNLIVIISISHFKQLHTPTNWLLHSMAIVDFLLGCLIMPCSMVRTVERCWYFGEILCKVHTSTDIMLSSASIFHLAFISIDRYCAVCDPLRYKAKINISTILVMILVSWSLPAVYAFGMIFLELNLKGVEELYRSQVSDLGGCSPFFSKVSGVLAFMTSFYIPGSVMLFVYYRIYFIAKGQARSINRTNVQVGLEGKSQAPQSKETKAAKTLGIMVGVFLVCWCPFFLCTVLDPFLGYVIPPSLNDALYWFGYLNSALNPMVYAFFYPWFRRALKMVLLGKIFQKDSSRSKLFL
Structure (SMILES),Ki [1],Ki [2],"Ki [1, 3]","Ki ([2]; read-out: Ki (μM) mouse, mouse TAAR1, HEK-293 membranes, first value of cell mouse/rat)"
"O=C(Nc1ccc([C@H]2O[C@@H]3CN[C@H]2C3)cc1)c1ccc(C(F)(F)F)cn1 [Example 36, N-[4-[(1S,3R,4S)-2-Oxa-5-azabicyclo[2.2.1]heptan-3-yl]phenyl]-5-(trifluoromethyl)pyridine-2-carboxamide]",1.28 µM,0.0325 µM,,
"O=C(Nc1ccc([C@H]2O[C@@H]3CN[C@H]2C3)cc1)c1[nH]nc(C2CC2)c1Cl [Example 37, 4-Chloro-3-cyclopropyl-N-[4-[(1S,3R,4S)-2-oxa-5-azabicyclo[2.2.1]heptan-3-yl]phenyl]-1H-pyrazole-5-carboxamide]",2.67 µM,0.0613 µM,,
"Clc1ccc(CNc2ccc([C@H]3O[C@@H]4CN[C@H]3C4)cc2)cc1 [Example 38, N-[(4-Chlorophenyl)methyl]-4-[(1S,3R,4S)-2-oxa-5-azabicyclo[2.2.1]heptan-3-yl]aniline]",0.167 µM,0.562 µM,,
"FC(F)(F)c1ccc(CNc2ccc([C@H]3O[C@@H]4CN[C@H]3C4)cc2)cc1 [Example 39, 4-[(1S,3R,4S)-2-Oxa-5-azabicyclo[2.2.1]heptan-3-yl]-N-[[4-(trifluoromethyl)phenyl]methyl]aniline]",0.359 µM,0.0069 µM,,
"Fc1ccc(CNc2ccc([C@H]3O[C@@H]4CN[C@H]3C4)cc2)cc1 [Example 40, N-[(4-Fluorophenyl)methyl]-4-[(1S,3R,4S)-2-oxa-5-azabicyclo[2.2.1]heptan-3-yl]aniline]",0.19 µM,0.636 µM,,
"CCCCNc1ccc([C@H]2O[C@@H]3CN[C@H]2C3)cc1 [Example 41, N-Butyl-4-[(1S,3R,4S)-2-oxa-5-azabicyclo[2.2.1]heptan-3-yl]aniline]",,0.0222 µM,2.83 µM,
"O=C(Nc1ccc([C@H]2O[C@@H]3CN[C@H]2C3)cc1)c1ccnc(C(F)(F)F)n1 [Example 42, N-[4-[(1S,3R,4S)-2-Oxa-5-azabicyclo[2.2.1]heptan-3-yl]phenyl]-2-(trifluoromethyl)pyrimidine-4-carboxamide]",10 µM,0.337 µM,,
"CC(C)c1cc(C(=O)Nc2ccc([C@H]3O[C@@H]4CN[C@H]3C4)cc2)[nH]n1 [Example 43, 3-Isopropyl-N-[4-[(1S,3R,4S)-2-oxa-5-azabicyclo[2.2.1]heptan-3-yl]phenyl]-1H-pyrazole-5-carboxamide]",0.167 µM,0.0144 µM,,
"O=C(Nc1ccc([C@H]2O[C@@H]3CN[C@H]2C3)cc1)c1ccc(C(F)(F)F)nc1 [Example 44, N-[4-[(1S,3R,4S)-2-Oxa-5-azabicyclo[2.2.1]heptan-3-yl]phenyl]-6-(trifluoromethyl)pyridine-3-carboxamide]",0.0848 µM,0.0111 µM,,
"CCOc1n[nH]c(C(=O)Nc2ccc([C@H]3O[C@@H]4CN[C@H]3C4)cc2)c1Cl [Example 45, 4-Chloro-3-ethoxy-N-[4-[(1S,3R,4S)-2-oxa-5-azabicyclo[2.2.1]heptan-3-yl]phenyl]-1H-pyrazole-5-carboxamide]",0.21 µM,0.0042 µM,,
"Cc1n[nH]c(C(=O)Nc2ccc([C@H]3O[C@@H]4CN[C@H]3C4)cc2)c1Cl [Example 46, 4-Chloro-3-methyl-N-[4-[(1S,3R,4S)-2-oxa-5-azabicyclo[2.2.1]heptan-3-yl]phenyl]-1H-pyrazole-5-carboxamide]",0.673 µM,0.0098 µM,,
"Cc1cn[nH]c1C(=O)Nc1ccc([C@H]2O[C@@H]3CN[C@H]2C3)cc1 [Example 47, 4-Methyl-N-[4-[(1S,3R,4S)-2-oxa-5-azabicyclo[2.2.1]heptan-3-yl]phenyl]-1H-pyrazole-5-carboxamide]",2.3 µM,0.313 µM,,
"CCCc1c(Cl)c(C(=O)Nc2ccc([C@H]3O[C@@H]4CN[C@H]3C4)cc2)nn1C [Example 48, 4-Chloro-1-methyl-N-[4-[(1S,3R,4S)-2-oxa-5-azabicyclo[2.2.1]heptan-3-yl]phenyl]-5-propyl-pyrazole-3-carboxamide]",1.35 µM,0.0114 µM,,
"CCCc1n[nH]c(C(=O)Nc2ccc([C@H]3O[C@@H]4CN[C@H]3C4)cc2)c1Cl [Example 49, 4-Chloro-N-[4-[(1S,3R,4S)-2-oxa-5-azabicyclo[2.2.1]heptan-3-yl]phenyl]-3-propyl-1H-pyrazole-5-carboxamide]",0.037 µM,0.0044 µM,,
"CCc1n[nH]c(C(=O)Nc2ccc([C@H]3O[C@@H]4CN[C@H]3C4)cc2)c1C [Example 50, 3-Ethyl-4-methyl-N-[4-[(1S,3R,4S)-2-oxa-5-azabicyclo[2.2.1]heptan-3-yl]phenyl]-1H-pyrazole-5-carboxamide]",0.344 µM,0.0128 µM,,
"O=C(Nc1ccc([C@H]2O[C@@H]3CN[C@H]2C3)cc1)c1ccc(OCC(F)(F)F)cn1 [Example 51, N-[4-[(1S,3R,4S)-2-Oxa-5-azabicyclo[2.2.1]heptan-3-yl]phenyl]-5-(2,2,2-trifluoroethoxy)pyridine-2-carboxamide]",0.0438 µM,0.0034 µM,,
"FC(F)(F)Oc1ccc(CNc2ccc([C@H]3O[C@@H]4CN[C@H]3C4)cc2)cc1 [Example 52, 4-[(1S,3R,4S)-2-Oxa-5-azabicyclo[2.2.1]heptan-3-yl]-N-[[4-(trifluoromethoxy)phenyl]methyl]aniline]",0.194 µM,0.0043 µM,,
"Brc1ccc([C@H]2O[C@@H]3CN[C@H]2C3)cc1 [Example 53, (1S,3R,4S)-3-(4-Bromophenyl)-2-oxa-5-azabicyclo[2.2.1]heptane]",0.0052 µM,0.0034 µM,,

Structure (SMILES),Ki [1],Ki [2],"Ki [1, 3]","Ki ([2]; read-out: Ki (μM) mouse, mouse TAAR1, HEK-293 membranes, first value of cell mouse/rat)"
"Brc1ccc([C@@H]2O[C@H]3CN[C@@H]2C3)cc1 [Example 54, (1R,3S,4R)-3-(4-Bromophenyl)-2-oxa-5-azabicyclo[2.2.1]heptane]",0.0346 µM,0.145 µM,,
O=C(Nc1ccc(Cl)cc1)c1ccc([C@H]2O[C@@H]3CN[C@H]2C3)cc1 [Example 55],0.0123 µM,0.0007 µM,,
"O=C(Nc1ccc(Br)cc1)c1ccc([C@H]2O[C@@H]3CN[C@H]2C3)cc1 [Example 56, N-(4-Bromophenyl)-4-[(1S,3R,4S)-2-oxa-5-azabicyclo[2.2.1]heptan-3-yl]benzamide]",0.0501 µM,0.0009 µM,,
"O=C(Nc1ccc(F)cc1)c1ccc([C@H]2O[C@@H]3CN[C@H]2C3)cc1 [Example 57, N-(4-Fluorophenyl)-4-[(1S,3R,4S)-2-oxa-5-azabicyclo[2.2.1]heptan-3-yl]benzamide]",0.0458 µM,0.0034 µM,,
"CCOc1ccc(NC(=O)c2ccc([C@H]3O[C@@H]4CN[C@H]3C4)cc2)cc1 [Example 58, N-(4-Ethoxyphenyl)-4-[(1S,3R,4S)-2-oxa-5-azabicyclo[2.2.1]heptan-3-yl]benzamide]",> 10 µM,0.0013 µM,,
"O=C(Nc1ccc(C(F)(F)F)cc1)c1ccc([C@H]2O[C@@H]3CN[C@H]2C3)cc1 [Example 59, 4-[(1S,3R,4S)-2-Oxa-5-azabicyclo[2.2.1]heptan-3-yl]-N-[4-(trifluoromethyl)phenyl]benzamide]",1.02 µM,0.0022 µM,,
"O=C(Nc1ccc(Cl)nc1)c1ccc([C@H]2O[C@@H]3CN[C@H]2C3)cc1 [Example 60, N-(6-Chloro-3-pyridyl)-4-[(1S,3R,4S)-2-oxa-5-azabicyclo[2.2.1]heptan-3-yl]benzamide]",5.34 µM,0.0033 µM,,
"FC(F)(F)c1ccc(Nc2ccc([C@H]3O[C@@H]4CN[C@H]3C4)cc2)cn1 [Example 61, N-[4-[(1S,3R,4S)-2-Oxa-5-azabicyclo[2.2.1]heptan-3-yl]phenyl]-6-(trifluoromethyl)pyridin-3-amine]",0.715 µM,0.0077 µM,,
"CCOc1ccc(NC(=O)c2ccc([C@H]3O[C@@H]4CN[C@H]3C4)cc2)cn1 [Example 62, N-(6-Ethoxy-3-pyridyl)-4-[(1S,3R,4S)-2-oxa-5-azabicyclo[2.2.1]heptan-3-yl]benzamide]",0.107 µM,0.0049 µM,,
"O=C(NCc1ccc(C(F)(F)F)cc1)c1ccc([C@H]2O[C@@H]3CN[C@H]2C3)cc1 [Example 63, 4-[(1S,3R,4S)-2-Oxa-5-azabicyclo[2.2.1]heptan-3-yl]-N-[[4-(trifluoromethyl)phenyl]methyl]benzamide]",0.593 µM,0.0034 µM,,
"O=C(NCc1ccc(Cl)cc1)c1ccc([C@H]2O[C@@H]3CN[C@H]2C3)cc1 [Example 64, N-[(4-Chlorophenyl)methyl]-4-[(1S,3R,4S)-2-oxa-5-azabicyclo[2.2.1]heptan-3-yl]benzamide]",1.6 µM,0.0033 µM,,
"COCCCNc1ccc([C@H]2O[C@@H]3CN[C@H]2C3)cc1 [Example 65, N-(3-Methoxypropyl)-4-[(1S,3R,4S)-2-oxa-5-azabicyclo[2.2.1]heptan-3-yl]aniline]",0.0702 µM,2.07 µM,,
"O=C(COCC(F)(F)F)Nc1ccc([C@H]2O[C@@H]3CN[C@H]2C3)cc1 [Example 66, N-[4-[(1S,3R,4S)-2-Oxa-5-azabicyclo[2.2.1]heptan-3-yl]phenyl]-2-(2,2,2-trifluoroethoxy)acetamide]",3.96 µM,0.0123 µM,,
"CCc1n[nH]c(C(=O)Nc2ccc([C@@H]3O[C@H]4CN[C@@H]3C4)cc2)c1C [Example 67, 3-Ethyl-4-methyl-N-[4-[(1R,3S,4R)-2-oxa-5-azabicyclo[2.2.1]heptan-3-yl]phenyl]-11H-pyrazole-5-carboxamide]",,,0.503 µM,0.01 µM
"CCCc1n[nH]c(C(=O)Nc2ccc([C@@H]3O[C@H]4CN[C@@H]3C4)cc2)c1Cl [Example 68, 4-Chloro-N-[4-[(1R,3S,4R)-2-oxa-5-azabicyclo[2.2.1]heptan-3-yl]phenyl]-3-propyl-1H-pyrazole-5-carboxamide]",0.0179 µM,0.0031 µM,,
"Cc1c(C2CC2)n[nH]c1C(=O)Nc1ccc([C@@H]2O[C@H]3CN[C@@H]2C3)cc1 [Example 69, 3-Cyclopropyl-4-methyl-N-[4-[(1R,3S,4R)-2-oxa-5-azabicyclo[2.2.1]heptan-3-yl]phenyl]-1H-pyrazole-5-carboxamide]",0.153 µM,0.0066 µM,,
"O=C(COCCC(F)(F)F)Nc1ccc([C@H]2O[C@@H]3CN[C@H]2C3)cc1 [Example 70, N-[4-[(1S,3R,4S)-2-Oxa-5-azabicyclo[2.2.1]heptan-3-yl]phenyl]-2-(3,3,3-trifluoropropoxy)acetamide]",0.512 µM,0.0094 µM,,
